Test results as given in patent US9926529B2, “Derivation of neural stem cells and dopaminergic neurons from human pluripotent stem cells” (International Stem Cell Corporation, priority 2012, dated 2018).
Counter-ions that a name gives are not always drawn. Like-named read-outs stand apart in the source and are kept apart here.

What was measured:
hPSC-NSCs [1] = experiment: Percentage of TH positive cells produced by chemical treatment; type: cell-based, human; conditions: chemical treatment 2.5 μM for two weeks
Experimental: (§1) The method specifically involved treating both hESC-H9-NSCs (Invitrogen) and hPSC-NSCs with Purmorphamine (2 μM) and FGF8 (100 ng/mL) in NB medium [NeuroBasal medium, 1× GlutaMAX, 1× N2/B27 Supplement (Invitrogen)] for 7 days. After 7 days of Purmorphamine and FGF8 treatment, the NSCs were dissociated with Accutase (Sigma) and plated 20,000 cells/mL into Matrigel coated 96 well plates and treated with small molecule library (Torcris 1120 Biologically Active Compounds) at 2.5 μM final concentration for two weeks (FIG. 6A). Two weeks after treatment with small molecules, all wells were visually observed and scored based on neurite density and dopamine release. For measuring neurite density, cells were fixed with 4% paraformaldehyde and phase contrast images were acquired using Cellavista Cell Imaging System (Roche Applied Science) from randomly selected fields. Neurite density was measured using the Cellavista density software image processing program. Each experimental condition was done in duplicate wells, and at least three independent experiments were conducted to acquire the final results.
(§2) Conditioned medium from the top neurite inducers (Table 1) (wells containing the highest density of neurites compare to control 0.1% DMSO treated) were collected and analyzed using a dopamine ELISA assay (Cosmo Bio). Conditioned medium was collected from samples containing 50,000 cells per well and centrifuged at 3000 RPM to remove cell debris. Supernatant was then collected and analyzed for quantitative determination of dopamine using a commercial dopamine ELISA assay kit (CusaCosmo Bio). Data analysis was performed using the microtiter plate reader (BIO-TEK Synergy 2). The results presented are from three independent experiments (n=3) and represented as mean±standard error of mean (s.e.m.) and statistical analysis was performed using the two-tailed Student's t-test with a confidence level of 95% (α=0.05) with statistical significance of P<0.05. Additionally, total RNA from each well were collected and analyze by RT-PCR for expression of TuJ1, MAP2, TH, GRK2, EN1, DAT, AADC, PAX2, NURR1, PITX3 and LMX1B from hPSC-NSCs (Table 2). […] Analysis of the ELISA data indicated the top small molecule neurite inducers produced higher levels of dopamine than control non-treated cells (1.5 ng/mL). […] The percentages of TH positive cells produced by chemical treatment with Kenpaullone (33%), Guggulsterone (35%), Kynurenic Acid (19%), Immedthridine Dihydrobromide (21%), and Dimaprit Dihydrochloride (18%) were higher than 15% of TH positive cells obtained from hPSC-NSCs differentiated for ≥1 month using a standard dopaminergic differentiation medium (BDNF 20 ng/mL, GDNF 20 ng/mL, cAMP 200 μM, Abscorbic Acid 200 μM, TGFβ3 2 ng/mL and DAPT).

hPSC-NSCs [2] = experiment: RT-PCR expression of dopamine neuron genes in hPSC-NSCs treated with small molecule hits; type: cell-based, human; conditions: for fold induction at 2.5 µM: Homo sapiens, Neuron, 336 h
Experimental: as §1, §2
Total RNA from at least triplicate samples with around 1 million cells each was isolated using either QIAsymphony automatic purification system or RNeasy Plus Mini kit, according to manufacturer's instructions (Qiagen). Total RNA was used for reverse transcription with the iScript cDNA synthesis kit (Biorad) and Px2 Thermal Cycler (Thermo Scientific). To analyze gene expression, PCR reactions were performed in duplicate using 1/25-th of the cDNA per reaction and the QuantiTect Primer Assay and Quantitest SYBR Green master mix (Qiagen). qPCR was performed using the Rotor-Gene Q (Qiagen) 5 min at 95° C., 5 s at 92° C., and 20 s at 60° C. for 37 cycles followed by melt to check the specificity of the amplicons from 50 to 99° C. raising by 1° C. each step. Relative quantification was performed against a standard curve and quantified values were normalized against the input determined by PPIG. The primers used for the analysis are listed in Supplementary Table S1. […]

[3] = hPSC-NSCs primed 7 days with Purmorphamine and FGF8, small molecule 2.5 μM for two weeks, read-out: DDC (AADC) expression by RT-PCR
[4] = hPSC-NSCs primed 7 days with Purmorphamine and FGF8, small molecule 2.5 μM for two weeks, read-out: EN1 expression by RT-PCR
[5] = hPSC-NSCs primed 7 days with Purmorphamine and FGF8, small molecule 2.5 μM for two weeks, read-out: KCNJ6 expression by RT-PCR
[6] = hPSC-NSCs primed 7 days with Purmorphamine and FGF8, small molecule 2.5 μM for two weeks, read-out: MAP2 expression by RT-PCR
[7] = hPSC-NSCs primed 7 days with Purmorphamine and FGF8, small molecule 2.5 μM for two weeks, read-out: NR4A2 (NURR1) expression by RT-PCR
[8] = hPSC-NSCs primed 7 days with Purmorphamine and FGF8, small molecule 2.5 μM for two weeks, read-out: TH1 expression by RT-PCR
[9] = hPSC-NSCs primed 7 days with Purmorphamine and FGF8, small molecule 2.5 μM for two weeks, read-out: Tubb3 expression by RT-PCR
[10] = hPSC-NSCs primed 7 days with Purmorphamine and FGF8, small molecule 2.5 μM for two weeks, read-out: LMX1B expression by RT-PCR
[11] = hPSC-NSCs primed 7 days with Purmorphamine and FGF8, small molecule 2.5 μM for two weeks, read-out: Pax2 expression by RT-PCR
[12] = read-out: SLC6A3 (DAT) expression by RT-PCR
[13] = hPSC-NSCs primed 7 days with Purmorphamine and FGF8, small molecule 2.5 μM for two weeks

Row | SMILES | percentage of TH positive cells (hPSC-NSCs [1]) | fold induction at 2.5 µM (hPSC-NSCs [2]; [3]) | fold induction at 2.5 µM (hPSC-NSCs [2]; [4]) | fold induction at 2.5 µM (hPSC-NSCs [2]; [5]) | fold induction at 2.5 µM (hPSC-NSCs [2]; [6]) | fold induction at 2.5 µM (hPSC-NSCs [2]; [7]) | fold induction at 2.5 µM (hPSC-NSCs [2]; [8]) | fold induction at 2.5 µM (hPSC-NSCs [2]; [9]) | fold induction at 2.5 µM (hPSC-NSCs [2]; [10]) | fold induction at 2.5 µM (hPSC-NSCs [2]; [11]) | fold induction at 2.5 µM (hPSC-NSCs [2]; [12]) | also measured
1 | CN(C)CCCSC(=N)N [Dimaprit dihydrochloride] | 18% | 31.9 | 15.5 | 0.16 | 12.4 | 1.87 | 9.02 | 9.62 |  |  |  | fold induction at 2.5 µM (hPSC-NSCs [2]; hPSC-NSCs primed 7 days with Purmorphamine and FGF8, small molecule 2.5 μM for two weeks, read-out: PITX3 expression by RT-PCR): 0.45
2 | O=C(O)c1cc(=O)c2ccccc2[nH]1 [Kynurenic acid] | 19% | 37.5 | 9.25 | 0.07 | 9.12 | 0.27 | 16.8 | 6.43 | 6.36 | 1.16 |  | fold induction at 2.5 µM (hPSC-NSCs [2]; hPSC-NSCs primed 7 days with Purmorphamine and FGF8, small molecule 2.5 μM for two weeks, read-out: SLC6A3 (DAT) expression by RT-PCR): 3.41
3 | O=C1Cc2c([nH]c3ccc(Br)cc23)-c2ccccc2N1 [Kenpaullone] | 33% | 11.1 | 11 | 0.12 | 8.17 | 0.05 | 2.15 | 9.61 |  |  | 108 | 
4 | c1cc(Cc2cnc[nH]2)ccn1 [Immethridine dihydrobromide] | 21% | 28.2 | 11.8 | 0.22 | 12.7 | 0.52 | 9.72 | 10.6 | 7.66 | 41.2 | 33.6 | 
5 | Cc1cc(C(=O)O)sc1C(N)C(=O)O (stereo not drawn) [3-MATIDA] |  |  |  |  |  |  |  |  |  |  |  | DDC (AADC) expression by RT-PCR (hPSC-NSCs [2]; [13]): 80.55; EN1 expression by RT-PCR (hPSC-NSCs [2]; [13]): 7.3; KCNJ6 (GRK2) expression by RT-PCR (hPSC-NSCs [2]; [13]): 1.21; LMX1B expression by RT-PCR (hPSC-NSCs [2]; [13]): 2.99; MAP2 expression by RT-PCR (hPSC-NSCs [2]; [13]): 10.7; NR4A2 (NURR1) expression by RT-PCR (hPSC-NSCs [2]; [13]): 3.06; PITX3 expression by RT-PCR (hPSC-NSCs [2]; [13]): 0.46; Pax2 expression by RT-PCR (hPSC-NSCs [2]; [13]): 0.65; SLC6A3 (DAT) expression by RT-PCR (hPSC-NSCs [2]; [13]): 1.42; TH1 expression by RT-PCR (hPSC-NSCs [2]; [13]): 5.1; Tubb3 expression by RT-PCR (hPSC-NSCs [2]; [13]): 3.74
